Starred links: 1 amine or outer side, 2 acyl side, 3 side chain; linkers in the order of their positions; H or OH if unused. Non-standard residues stand in square brackets, D forms with d. No end group written: not given here. γGlu = O=C(O)[C@H](CCC(=O)[*:2])N[*:1]; Abu = CC[C@H](N)C(=O)O
Assay: Fat-like richness and smoothness imparted to low-fat milk, quantitative sensory evaluation test
Assay type: in vivo, human
Settings: for Fat-like richness / Smoothness: n=12, control 0, strong 3, very strong 5 points
Procedure: (§1) The quantitative sensory evaluation test was performed as follows. Each of γ-Glu-Cys-Gly (glutathione), γ-Glu-Val-Gly, and γ-Glu-Abu-Gly was mixed with commercially-available low-fat milk (non-fat milk solids content: 8.6% or more, milk fat content: 1.5%) at a concentration of 0.00001 to 1 g/dl, and the intensity of imparting fat-like richness was measured.
It should be noted that each peptide was dissolved in low-fat milk, and then a sample, the pH of which was lowered, was adjusted with NaOH so that the pH might be ±0.2 with respect to the pH of the low-fat milk free of peptide.
The sensory score for fat-like richness and smoothness was defined as follows: control (free of peptide): 0 point; strong: 3 points; and very strong: 5 points. Then, the test was performed with n=12. […] As clear from Table 6, it was confirmed that the peptide imparted fat-like richness and smoothness to low-fat milk at a lower concentration than glutathione.
as §1, with “γ-Glu-Val-Gly” for “γ-Glu-Cys-Gly (glutathione), γ-Glu-Val-Gly,”, “cinacalcet” for “γ-Glu-Abu-Gly”
It should be noted that each sample was dissolved in low-fat milk, and then a sample, the pH of which was lowered, was adjusted with NaOH so that the pH might be ±0.2 with respect to the pH of the low-fat milk free of a sample.
The sensory score for fat-like richness and smoothness was defined as follows: control (free of sample): 0 point; strong: 3 points; and very strong: 5 points. Then, the test was performed with n=12.

[1] = 0.01 g/dl in low-fat milk (milk fat 1.5%), Table 6
[2] = 0.01 g/dl in low-fat milk, Table 6
[3] = 0.0001 g/dl in low-fat milk, Table 6
[4] = 0.001 g/dl in low-fat milk, Table 6
[5] = 0.001 g/dl in low-fat milk, Table 8

Molecule: N[C@@H](CCC(=O)N[C@@H](CS)C(=O)NCC(=O)O)C(=O)O [γ-Glu-Cys-Gly, reference compound]
- Fat-like richness [1]: 2.5 points
- Taste profile [2]: Growth exists in the whole
- Smoothness [2]: 3.0 points

Molecule: [γGlu]-Val-Gly
- Taste profile [3]: Taste is enhanced in middle
- Fat-like richness [3]: 2.5 points
- Smoothness [3]: 2.3 points
- Taste profile [4]: Taste is enhanced in middle
- Taste profile [5]: Taste is enhanced in middle taste
- Fat-like richness [4]: 4.5 points
- Smoothness [4]: 4.0 points
- Fat-like richness [5]: 4.5 points
- Smoothness [5]: 4.0 points

Molecule: [γGlu]-[Abu]-Gly
- Fat-like richness [4]: 2.3 points
- Smoothness [4]: 3.0 points
- Fat-like richness [1]: 4.3 points
- Smoothness [2]: 4.0 points

Reference: patent US8399417B2, “Food” (Ajinomoto Co., Inc., priority 2007, dated 2013)
